The source made the active and inactive calls. The rule behind the calls is not given here.
Legend:
[1] = test system: HCC1806; assay: Induction of apoptosis in human HCC1806 cells assessed as early apoptotic cells at 200 uM after 48 hrs by Annexin V-FITC/propidium iodide double staining based flow cytometry (reference value: 2.16%); format: functional
[2] = target: T1, M-phase inducer phosphatase 3 (Homo sapiens) (UniProt P30307); assay: Inhibition of cdc25c in human HCC1806 cells assessed as increase in cdc25c phosphorylation at ser216 residue by western blot analysis; format: cell-based
T1 sequence (whole entry): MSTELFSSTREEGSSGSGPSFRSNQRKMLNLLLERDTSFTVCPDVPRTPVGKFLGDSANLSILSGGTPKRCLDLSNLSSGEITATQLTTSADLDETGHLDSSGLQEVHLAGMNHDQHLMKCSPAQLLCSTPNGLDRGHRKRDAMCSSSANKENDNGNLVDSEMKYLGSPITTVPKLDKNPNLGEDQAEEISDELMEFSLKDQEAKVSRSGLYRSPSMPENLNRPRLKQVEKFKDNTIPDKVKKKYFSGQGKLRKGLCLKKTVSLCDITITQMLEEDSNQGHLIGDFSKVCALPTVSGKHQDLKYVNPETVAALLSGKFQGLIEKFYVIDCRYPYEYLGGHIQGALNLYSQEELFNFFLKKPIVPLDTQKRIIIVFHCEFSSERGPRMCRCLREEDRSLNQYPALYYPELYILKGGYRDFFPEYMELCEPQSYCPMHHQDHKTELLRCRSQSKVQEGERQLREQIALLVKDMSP

[3] = test system: HCC1806; assay: Antimigratory activity in human HCC1806 cells assessed as reduction in EGFR expression at 50 to 200 nM after 48 hrs by Western blot analysis; format: functional, cell-based
[4] = Toxicity in ICR mouse assessed as reduction in body weight at 12.5 to 25 mg/kg, iv administered once per day for 23 consecutive days and measured every 2 days; format: organism-based; settings: in vivo, 48 h
[5] = test system: HCC1806; assay: Induction of apoptosis in human HCC1806 cells assessed as late apoptotic cells at 100 uM after 48 hrs by Annexin V-FITC/propidium iodide double staining based flow cytometry (reference value: 0.81%); format: functional
[6] = test system: HCC1806; assay: Antitumor activity against human HCC1806 cells in ICR mouse assessed as reduction in tumor weight at 12.5 mg/kg, iv administered once per day for 23 consecutive days and measured every 2 days relative to control; format: functional; parameters: scale not given: the % may be the effect or the level left
[7] = test system: DU-4475; assay: Antiproliferative activity against human DU4475 cells after 72 hrs by MTT assay; format: functional, cell-based; settings: DU-4475, 72 h
[8] = test system: HCC1806; assay: Induction of apoptosis in human HCC1806 cells assessed as early apoptotic cells at 50 uM after 48 hrs by Annexin V-FITC/propidium iodide double staining based flow cytometry (reference value: 2.16%); format: functional
[9] = Toxicity in ICR mouse assessed as induction of morphological changes in heart at 25 mg/kg, iv administered once per day for 23 consecutive days; format: organism-based; settings: in vivo
[10] = test system: HCC1806; assay: Induction of cell cycle arrest in human HCC1806 cells assessed as accumulation at S phase at 100 nM after 48 hrs by propidium iodide staining based FACScan flow cytometry (reference value: 18.89%); format: functional
[11] = test system: HCC1806; assay: Induction of apoptosis in human HCC1806 cells assessed as necrotic cells at 200 uM after 48 hrs by Annexin V-FITC/propidium iodide double staining based flow cytometry (reference value: 1.32%); format: functional
[12] = test system: HCC1806; assay: Induction of cell cycle arrest in human HCC1806 cells assessed as downregulation of cyclin B1 expression by western blot analysis; format: functional, cell-based
[13] = Toxicity in ICR mouse assessed as induction of morphological changes in kidney at 25 mg/kg, iv administered once per day for 23 consecutive days; format: organism-based; settings: in vivo
[14] = test system: HCC1806; assay: Induction of apoptosis in human HCC1806 cells after 48 hrs by Annexin V-FITC/propidium iodide double staining based flow cytometry; format: functional, cell-based
[15] = test system: HCC1806; assay: Induction of intracellular reactive oxygen species generation in human HCC1806 cells incubated for 48 hrs by DCFH2-DA staining based flow cytometeric analysis; format: functional, cell-based
[16] = test system: HCC1806; assay: Antitumor activity against human HCC1806 cells in ICR mouse assessed as increase in apoptosis in tumor at 12.5 to 25 mg/kg, iv administered once per day for 23 consecutive days by TUNEL based immunohistochemical analysis; format: functional, organism-based
[17] = test system: HCC1806; assay: Induction of apoptosis in human HCC1806 cells assessed as late apoptotic cells at 200 uM after 48 hrs by Annexin V-FITC/propidium iodide double staining based flow cytometry (reference value: 0.81%); format: functional
[18] = test system: HCC1806; assay: Induction of apoptosis in human HCC1806 cells assessed as necrotic cells at 50 uM after 48 hrs by Annexin V-FITC/propidium iodide double staining based flow cytometry (reference value: 1.32%); format: functional
[19] = test system: HCC1806; assay: Inhibition of cell invasion in human HCC1806 cells at 100 to 200 nM incubated for 48 hrs by crystal violet staining based matrigel coated transwell assay; format: functional
[20] = Inhibition of PI3K/Akt/mTOR signalling pathway in human HCC1806 cells assessed as reduction in phosphorylated PI3K expression at Y458 residue after 48 hrs by Western blot analysis; format: cell-based
[21] = test system: HCC1806; assay: Induction of apoptosis in human HCC1806 cells assessed as viable cells at 200 uM after 48 hrs by Annexin V-FITC/propidium iodide double staining based flow cytometry (reference value: 95.7%); format: functional; settings: HCC1806, 48 h, read-out: Activity
[22] = test system: HCC1806; assay: Induction of apoptosis in human HCC1806 cells assessed as increase in Bad expression at 50 to 200 nM after 48 hrs by Western blot analysis; format: functional, cell-based
[23] = test system: HCC1806; assay: Antitumor activity against human HCC1806 cells in ICR mouse assessed as tumor shrinkage at 12.5 to 25 mg/kg, iv administered once per day for 23 consecutive days by TUNEL based immunohistochemical analysis; format: functional, organism-based
[24] = test system: HCC1806; assay: Antimigratory activity against human HCC1806 cells assessed as reduction in MMP2 expression at 50 to 200 nM after 48 hrs by Western blot analysis; format: functional, cell-based
[25] = test system: HCC1806; assay: Induction of cell cycle arrest in human HCC1806 cells assessed as accumulation at G2/M phase at 50 nM after 48 hrs by propidium iodide staining based FACScan flow cytometry (reference value: 10.38%); format: functional
[26] = test system: HCC1806; assay: Antimigratory activity against human HCC1806 cells measured up to 48 hrs by phase contrast microscopic based scratch wound healing assay; format: functional, cell-based
[27] = test system: HCC1806; assay: Antitumor activity against human HCC1806 cells xenografted in iv dosed ICR mouse assessed as reduction in tumor volume administered once per day for 23 consecutive days and measured every 2 days; format: functional, organism-based
[28] = test system: HCC1806; assay: Antitumor activity against human HCC1806 cells in ICR mouse assessed as increase in apoptosis in tumor at 12.5 to 25 mg/kg, iv administered once per day for 23 consecutive days by hematoxylin and eosin staining based histopathological assay; format: functional, organism-based
[29] = test system: HCC1806; assay: Antitumor activity against human HCC1806 cells in ICR mouse assessed as increase in apoptosis in tumor at 12.5 to 25 mg/kg, iv administered once per day for 23 consecutive days by Ki67 staining-based immunohistochemical analysis; format: functional, organism-based
[30] = test system: HCC1806; assay: Induction of cell cycle arrest in human HCC1806 cells assessed as accumulation at G1 phase at 100 nM after 48 hrs by propidium iodide staining based FACScan flow cytometry (reference value: 70.74%); format: functional

SMILES: C=C1C(=O)[C@@]23C(=O)[C@@H]4OC[C@]5(C=CCC(C)(C)[C@@H]45)[C@@H]2CC[C@@H]1[C@H]3OC(=O)/C=C/c1ccncc1
- Activity [1]: 22.49%
- inhibition [2]: Dose-dependent effect
- Activity [3]: Active
- Activity [4]: Non-Toxic
- Activity [5]: 3.61%
- Activity [6]: 67.3%
- IC50 [7]: 210 nM
- Activity [8]: 14.87%
- Activity [9]: Non-Toxic
- Activity [10]: 19.13%
- Activity [11]: 4.32%
- Activity [12]: Dose-dependent effect
- Activity [13]: Non-Toxic
- Activity [14]: Dose-dependent effect
- Activity [15]: Dose-dependent effect
- Activity [16]: Active
- Activity [17]: 22.79%
- Activity [18]: 0.46%
- inhibition [19]: Active
- inhibition [20]: Dose-dependent effect
- viability at 200 µM [21]: 50.4%
- Activity [22]: Active
- Activity [23]: Active
- Activity [24]: Active
- Activity [25]: 15.94%
- Activity [26]: Dose-dependent effect
- Activity [27]: Dose-dependent effect
- Activity [28]: Active
- Activity [29]: Active
- Activity [30]: 60.61%

— ChEMBL document CHEMBL4627407, “Identification of a Potent Oridonin Analogue for Treatment of Triple-Negative Breast Cancer” (J Med Chem, 2020)
